How the values were obtained:
antibodies to HIV-1 [1] = experiment: Rapid EIA with latex-immobilized peptide reagents, HIV-1; assay type: binding, human; conditions: passive adsorption
Method: A test device for performing rapid tests in less than 15 minutes was prepared as illustrated in Figures 14 and 15. Referring to Figures 14 and 15, the device comprises a plastic slide 10 (approximately 1 inch wide by 3/16 inch thick by 3 1/4 inches long) having a plurality of funnel-like wells 12, each having a capacity of approximately 200 microliters, an upper inflow tract rim 14 diameter of approximately 9 mm and a lower outflow tract 16 diameter of approximately 2 mm. The undersurface of the outflow tract 16 is designed so as to provide a smooth even contact with a membrane filter 18 placed next to it in the apparatus. The membrane filter separates reactants passing through it by size, retaining those particles above a predetermined size, such as above 0.22 µm, or above 0.45 µm in size (depending upon the specific filter chosen), though other filters placed into the apparatus might separate by binding or affinity (i.e. nitrocellulose, glass). […]
The mixture was shaken gently a room temperature for 1 hour, and then washed 3 times by centrifugation at 9,000 x g for 10 minutes, removal of supernate, and resuspension of the pellet in a 12-14 ml volume of deionized water, pH 4.5. […] It was determined that this stock solution of latex coated with peptide-BSA conjugate could be diluted 1:10-1:30 with latex diluent buffer for use in the rapid EIA described below. […]

[2] = EIA of 4S36 as free peptide or BSA conjugate on 3 polystyrene microtiter plates; assay type: binding, human; conditions: BSA-peptide conjugate, plastic type 1; Figure 9
Text: Antigenicity of each unnatural peptide is indicated by its ability as a free peptide to inhibit binding of HIV-1 antibodies to a BSA conjugate of peptide 2S09. […] Antigenicity of each peptide is indicated by its ability as a free peptide to inhibit binding of HIV-1 antibodies to a BSA conjugate of either 2S09 or peptide 5S67, a natural sequence variant reported in HIV-1 isolates from Zaire (Gnann et al., Science 237:1346-1349, 1987; and Alizon et al., Cell 46:36, 1986). […] Antigenicity of each peptide is indicated by its ability as a free peptide to inhibit binding of SIV/HIV-2 antibodies to a BSA conjugate of peptide 2S27. […] AA variants of peptide 2S27 are highlighted. […] Different groups of peptides were initially conjugated to BSA as indicated and the conjugates of each pool were first tested. […] All peptides were utilized C-terminally conjugated to BSA. […]
The free peptides or peptide-protein conjugates of Figures 1-13 were initially screened for immunoreactivity by coating each well of polystyrene microtiter EIA plates (Costar, Cambridge, Massachusetts, U.S.A.) with 0.2 ml amounts of concentrations of 5-50 micrograms/ml peptide in Tris buffer, 10 mM, pH 8.0, at 4°C overnight. […] Reactions were stopped with 50 microliters of 4N H₂SO₄, and the color development was quantitated in a Multiscan plate reader at A₄₉₂. […]

antibodies to HIV-1 [3] = experiment: EIA of peptide-carrier conjugates with individual human sera; assay type: binding; conditions: BSA-SMCC conjugate
Method: The free peptides or peptide-protein conjugates of Figures 1-13 were initially screened for immunoreactivity by coating each well of polystyrene microtiter EIA plates (Costar, Cambridge, Massachusetts, U.S.A.) with 0.2 ml amounts of concentrations of 5-50 micrograms/ml peptide in Tris buffer, 10 mM, pH 8.0, at 4°C overnight. Peptides or peptide-protein conjugates showing immunoreactivity by EIA were then further diluted for coating to determine the minimal concentrations required that allowed maximal immunoreactivity with antibodies to HIV, and minimal nonspecific reactivity with normal sera. The EIA tests were performed as follows: The coating solution was removed from each well and the wells were blocked at 37°C for 30 minutes with a solution of 50 mM phosphate, 100 mM NaCl, pH 7.4, 1% BSA, 0.5% gelatin. The wells were then aspirated dry with a microtiter plate washer and washed 3 times with a solution of 50 mM phosphate, 100 mM NaCl, .05% Tween 20, (trademark) pH 7.4 (PBST). A 1:101 dilution (in PBST with 1% BSA, 1% NRS) of the primate serum to be tested was then added as 0.2 ml to each washed well and the plates were incubated at 37°C for 30 minutes. The plates were then washed x 3 with PBST, and 0.2 ml amounts of a 1:2000 dilution of goat anti-human (GAH) peroxidase enzyme conjugate (Organon Teknika, Cappel, Melvern, Pennsylvania, U.S.A.) that recognized human IgG, IgA, and IgM were added to each well, and the plates were incubated for 30 minutes at 37°C. The plates were then washed x 3 with PBST and incubated with 0.2 ml/well substrate consisting of 0,1M citric acid pH 5.2, 0.1 mg/ml o-phenylene diamine, 0.01% H₂O₂, at room temperature in the dark for 10 minutes. Reactions were stopped with 50 microliters of 4N H₂SO₄, and the color development was quantitated in a Multiscan plate reader at A₄₉₂. In each series of experiments positive and negative controls were included, and all tests were done in duplicate or quadruplicate. Most peptides and peptide conjugates were initially screened against a 1:101 dilution of pools of HIV positive or HIV negative sera, and the same serum pool was used to allow quantitative comparison of immunoreactivity of different free peptides or peptide-protein conjugates.
Figure 10A illustrates the immunoreactivity of synthetic natural peptides 2S06 and 2S09 (Figure 1) when conjugated via their C-terminal GC spacer to KLH using the heterobifunctional linker MBS. […] However, the immunoreactivity of many of the positives was low (A₄₉₂ less than 1.0), and some of the negative samples had A₄₉₂ values slightly above 0.20, resulting in minimal discrimination between negatives and positives. This poor discrimination led to a search for an improved carrier protein and/or linker.
Figure 10B illustrates the reactivity of synthetic natural peptide IWGCSGKLICTTAVPGC (2S09) when conjugated through its C-terminus to BSA via the heterobifunctional linker SMCC. […] Improvement in assay performance as compared with results of Example 5A is noted with respect to negative samples having lower A₄₉₂ values, and most positive samples having higher A₄₉₂ values. […] Because of the possibility that some of the low responsiveness might be due to antigenic differences of genetic variants in the region of this epitope, as reported for HIV isolates from Zaire (Gnann et al., Science 237:1346-1349, 1987), the natural sequence variant peptide 5S67 (Figure 3) was synthesized, chemically linked to BSA with SMCC, and tested against the same sera, plus one additional negative serum sample (Figure 10C). […] This instigated a search for unnatural sequence variants of peptide 2S09 that would retain high immunoreactivity with most sera that contained antibodies to HIV-1, and yet retain low reactivity with sera devoid of antibodies to HIV. […]

VWGCSGKLICTTAVPGC [4S36]
performance of free peptide passively adsorbed to latex (antibodies to HIV-1 [1]): produced an immunoreactive reagent
positive/negative ratios [2]: ≥ 20
reactivity with sera that did not contain antibodies to HIV-1 (antibodies to HIV-1 [3]; 85-87 negative sera, Figures 10C, 11): remained acceptably low
A492 values of positive samples (none less than) (antibodies to HIV-1 [3]; 98 positive samples, Figure 11): ≥ 1.0
immunoreactivity with positive sera (antibodies to HIV-1 [3]; 98 sera containing antibodies to HIV-1, Figures 10B, 10C, 11): striking increase in immunoreactivity of the low positives
